We go through one compound from US20140234364A1, “TOTAL SYNTHESIS AND IMM[…] […] OF THE LIPOPOLY[…] NEISSERIA MENINGITIDIS” (MAX-PLANCK-GESELLSCHAFT ZUR FÖRDERUNG DER WISSENSCHAFTEN …, priority 2011, published 2014).

In the assay the test system is female BALB/c mice. The assay can be described thus: Immunization of mice in presence of Freund's adjuvant, antibody responses in sera analyzed by glycan microarray. Format: in vivo. On the procedure:
To evaluate the immunogenicity of the meningococcal tetrasaccharide 1, two groups of six female BALB/c mice, six to eight weeks old, were immunized subcutaneously (s.c.) in presence of Freund's adjuvant (FA). Each mouse of the first group was immunized s.c. with 0.4 μg unconjugated tetrasaccharide 1 antigen in presence of Freund's adjuvant (priming with Freund's Complete Adjuvant, boosting with Freund's Incomplete Adjuvant, both Sigma). Each mouse of the second group received tetrasaccharide 1-CRM197 conjugate, whereby the amount of conjugate corresponded to 0.4 μg tetrasaccharide 1 antigen. Two weeks after initial immunizations, first boosting injection was performed with 4 μg tetrasaccharide 1 or the corresponding tetrasaccharide 1-CRM197 conjugate.
For all immunizations, antigen was diluted in sterile PBS to a total injection volume of 100 μL per mouse. Blood was collected at the tail vein and erythrocytes were separated from serum by centrifugation. All blood samples from the initial immunization study with FA were diluted with 10 μl sterile PBS before sera separation. Sera were collected in definited time intervals and IgG antibody responses were analyzed by microarray.
Tetrasaccharide 1 in three different concentrations (1, 0.5 and 0.1 mM), CRM197 (1, 0.5 and 0.1 μM) and bovine serum albumin (BSA)-spacer-GlcNAc conjugate (1, 0.5 and 0.1 μM) were dissolved in sodium phosphate buffer (50 mM, pH 8.5) and printed in triplicate robotically using a piezoelectric spotting device (S11, Scienion, Berlin, Germany) onto the surface of the microarray slides (NHS-activated glass slides; CodeLink). BSA-spacer-GlcNAc was used to assess immunogenicity against the spacer moiety of the conjugate. […]
The quenched array slides were blocked for 1 hour with 1% (w/v) BSA in PBS, then washed three times with PBS and dried by centrifugation. […] Then, slides were incubated with fluorescence-labeled detection antibody diluted in 1% BSA-PBS (w/v) for 1 hour at room temperature in a humid chamber. […]

As to `CC(=O)NC1C(O)[C@H](O)C(CO)O[C@@H]1OC1C(O)[C@H](O)C([C@@H](O)CO)O[C@@H]1OC1C(O)[C@@H](O[C@@H]2C(O)C[C@](OCCCCCN)(C(=O)O)OC2[C@H](O)CO)OC([C@@H](O)CO)[C@H]1O` (stereo partly drawn) [tetrasaccharide 1, 2-N-acetyl-2-deoxy-α-D-glucopyranosyl-(1→2)-L-glycero-α-D-manno-heptopyranosyl-(1→3)-L-glycero-α-D-manno-heptopyranosyl-(1→5)-2-(5-amino)pentyl-3-deoxy-α-D-manno-oct-2-ulopyranosidonic acid], the “IgG antibody response, anti-tetrasaccharide 1 titers (fluorescence intensity)” value (1:80 sera dilution, after first boosting, Freund's adjuvant) is “relatively weak”. Also, where the note is “after first boosting with 4 μg (4. week), Freund's adjuvant”, the “Tetrasaccharide 1-specific IgG and IgM antibody responses in pooled sera” value was “identified”. The “IgG response one week after second boosting” value (second boost 4 μg antigen in week 8, read in week 9) is listed as “marginal increase”.
